The values that follow come from paper PMC11615764, “Discovery of Ketal‐Ester Ionizable Lipid Nanoparticle with Reduced Hepatotoxicity, Enhanced Spleen Tropism for mRNA Vaccine Delivery” (Advanced Science, 2024).

The nature of data set [1]: LNP apparent pKa, TNS dye‐binding assay. In kind it is physicochemical. The following applies: apparent pKa of the LNP. The method, then: Following the formulation methods of SpikeVax and Onpattro, all KEL LNPs were formulated with standard helper lipids: DSPC, Chol, and DMG‐PEG2000 at a molar ratio of Ionizable lipid/DSPC/Chol/DMG‐PEG2000 50:10:38.5:1.5, and at an ionizable lipid to RNA charge ratio (N/P) of 6.^[ [25] ^] Particle size and polydispersity index (PDI) were determined by dynamic light scattering (DLS), apparent pKa was assessed using 6‐(p‐toluidino)‐2‐naphthalenesulfonic acid (TNS) dye‐binding assay, while encapsulation efficiency was evaluated by a RiboGreen accessibility assay.
A series of buffers with pH values varying by 1 between 3.0 and 12.0 were prepared by titrating a solution containing 10 mM citrate, 10 mM phosphate, 10 mM borate, and 150 mM NaCl with 1.0 M HCl and 0.5 M NaOH. LNPs were diluted to 75 µM ionizable lipid, TNS to 6 µM in these buffers. Fluorescence intensity was determined using a Thermo Scientific 3020 spectrophotometer (325 nm excitation/435 nm emission). With the resulting fluorescence values, a sigmoidal plot of fluorescence versus buffer pH was created. The […] inflection point of this curve was the apparent pKa of the LNP formulation.

Data set [2] in a line: Encapsulation efficiency of LNPs, RiboGreen accessibility assay. The following applies: LNP: ionizable lipid/DSPC/Chol/DMG‐PEG2000 50:10:38.5:1.5, N/P 6. In kind it is physicochemical. The procedure:
(§1) Particle size and polydispersity index (PDI) were determined by dynamic light scattering (DLS), apparent pKa was assessed using 6‐(p‐toluidino)‐2‐naphthalenesulfonic acid (TNS) dye‐binding assay, while encapsulation efficiency was evaluated by a RiboGreen accessibility assay.
(§2) The sizes of the LNP formulations were assessed by DLS (Malvern Zetasizer Pro). Quant‐it RiboGreen assay (ThermoFisher Scientific, Cat# R11490) was used to measure the encapsulation efficiency of the LNP formulations. Briefly, LNPs treated by 1% (v/v) Triton X‐100 (Adamas‐beta) to disrupt LNP structure and release mRNA and untreated LNPs were diluted to a concentration below 2 µg mRNA/mL, then reacted with an equal volume of RiboGreen assay solution at a 200‐fold dilution. Standard curves were generated within the range between 0.0 to 2.0 µg mRNA/mL using a series of free mRNA solutions with or without 1% v/v Triton X‐100. The concentrations of free mRNA and total mRNA in the formulation were determined using bulk fluorescent reading (excitation: 490 nm, emission: 535 nm) of the sample against the corresponding standard curves. The amount of RNA loaded into the LNPs (internal RNA) was calculated by subtracting the values obtained in 1 x TE (external RNA) from 1 x TE + 1% Triton X‐100 (total RNA). Subsequently, the encapsulation efficiency was calculated as the percentage obtained by dividing the amount of internal RNA by the total RNA amount.

A further data set concerns Balb/c mice. Briefly: In vivo firefly luciferase mRNA expression, whole‐body bioluminescence. Also noted: species or system mouse. The following applies: mLuci LNP, female Balb/c mice; for whole‐body luciferase activity after IM administration: IM 0.25 mg/kg, compared with DLin‐MC3‐DMA LNP; for delivery potency (whole‐body luciferase), IV and IM: IV 1 mg/kg and IM 0.25 mg/kg; for whole‐body luciferase activity after IV administration: IV 1 mg/kg. The method, then: Subsequently, the formulated KEL LNPs were evaluated for their in vivo delivery efficiency (Figure 1C). Wild‐type female Balb/c mice were administered with a single dose of LNPs containing firefly luciferase mRNA (mLuci) via IV or intramuscular (IM) injection (Figure 2A,B), followed by whole‐body luciferase activity assay. A control group receiving DLin‐MC3‐DMA‐based LNP was included in each experiment to facilitate comparisons across experiments.
Balb/c mice were injected intramuscularly (0.25 mg k^−1g) or intravenously (1 mg k^−1g) with LNPs. At 6 or 24 hrs post‐administration, mice were injected intraperitoneally with 150 mg k^−1g of D‐luciferin monosodium salt (ThermoFisher) and imaged using the in vivo imaging system (IVIS Lumina LT Series III) 10 min post intraperitoneally. 1 × PBS (IM: 50 µL; IV: 200 µL) was injected as a negative control.

A short description of data set [3]: LNP particle size and PDI by dynamic light scattering. The following applies: LNP: ionizable lipid/DSPC/Chol/DMG‐PEG2000 50:10:38.5:1.5, N/P 6; DLS. The format is physicochemical. The method, then: as §1, §2
Another data set relates to human liver microsomes. The data set is described as follows: Microsomal stability of ionizable lipids, human. The following applies: 0.5 mg protein/mL, NADPH and UDPGA.
Data set [4] is described as follows: Biodegradability of LNPs after IV injection, ionizable lipid in plasma by LC‐MS/MS. The following applies: mLuci LNP IV 0.5 mg/Kg, mice.
Data set [5] relates to 293T cells. The data set is described as follows: Cell Counting Kit‐8 cytotoxicity assay. The following applies: lipid alone at 50 µM, CCK8, 48 h.
For data set [6] the following is noted: mouse, in vivo, iv, 0.5 mg/kg.
The test system of data set [7] is 293T cells. The following applies: 50 µM.

“Also recorded” adds a separate entry of the source. Like-named read-outs stand apart in the source and are kept apart here.

Usually pKa stands for the pH at which an ionisable group is half protonated. Take `CCCCCCCCCCCOC(=O)CCCCCC1(CCCCCCCC(=O)OC(CCCCCCCC)CCCCCCCC)OCC(CCN(C)C)O1` (stereo not drawn) [KEL2]: in data set [1], the pKa is given as 6.88. In [2], the “Encapsulation efficiency (%)” value came out at 92.3%. Besides, in the data set on Balb/c mice, the “whole‐body luciferase activity after IM administration” value is listed as “significantly higher levels of luciferase activity than the DLin‐MC3‐DMA LNP”; the “delivery potency (whole‐body luciferase), IV and IM” value (from here on “delivery potency”) is “higher potency than KEL1 and KEL4; also recorded: higher potency than LNPs with either double branched tails (KEL10) or double linear tails (KEL11)”. Besides, in data set [3], the PDI is reported as 0.03 and the “Size (nm)” value was determined as 70.27 nm.

On to `CCCCCCCCCCCOC(=O)CCCCCN(CCO)CCCCCCCC(=O)OC(CCCCCCCC)CCCCCCCC` [SM‐102], for which, in the data set on human liver microsomes, the “remaining after 120 minutes” value is recorded as “about 80%”. In data set [4], the “decline of ionizable lipid level in plasma during the first 6 hrs” value was “reduced faster than (4S)‐KEL12”, the “ionizable lipid level in plasma after 12 hrs” value is on record as below 10 ng/mL and the “ionizable lipid level in plasma after 24 hrs” value is “undetectable”. In addition, the cell viability entry in the data set on 293T cells [5] is “over 80%”.

Regarding `CCCCCCCCCCCOC(=O)CCCCCC1(CCCCCCCC(=O)OC(CCCCCCCC)CCCCCCCC)OCC(CCN(C)CC)O1` (stereo not drawn) [KEL5], the pKa in data set [1] worked out at 6.86. Also, the “Encapsulation efficiency (%)” value in data set [2] worked out at 96.5%. In data set [3], the PDI amounted to 0.07 and the “Size (nm)” value amounted to 78.44 nm.

On to `CCCCCCCCCCCOC(=O)CCCCCC1(CCCCCC(=O)OCCCCCCCCCCC)OCC(CCN(C)C)O1` (stereo not drawn) [KEL11], for which, in [1], the pKa is given as 6.88. The “Encapsulation efficiency (%)” value in [2] came to 93.3%. The “delivery potency” value in the data set on Balb/c mice is “further decrease in potency compared to KEL10”. In data set [3], the PDI came to 0.34 and the “Size (nm)” value was 110.3 nm.

As for `CCCCCCCCCCCOC(=O)CCCCCC1(CCCCCCCC(=O)OC(CCCCCCCC)CCCCCCCC)OCC(CCN(CC)CC)O1` (stereo not drawn) [KEL6], the pKa in data set [1] amounted to 6.89. For the same compound, the “Encapsulation efficiency (%)” value in data set [2] was 97.5%. Further, in data set [3], the PDI worked out at 0.06 and the “Size (nm)” value is 80.34 nm.

Take `CCCCCCCCCCCOC(=O)CCCCCC1(CCCCCCCC(=O)OC(CCCCCCCC)CCCCCCCC)OCC(CCCN(C)C)O1` (stereo not drawn) [KEL3]: the pKa in data set [1] is listed as 6.86. For the same compound, the “Encapsulation efficiency (%)” value in data set [2] is 89.3%. In addition, in the data set on Balb/c mice, the “whole‐body luciferase activity after IM administration” value is recorded as “significantly higher levels of luciferase activity than the DLin‐MC3‐DMA LNP”; the “delivery potency” value is “higher potency than KEL1 and KEL4”. In addition, in [3], the PDI worked out at 0.16 and the “Size (nm)” value is given as 98.15 nm.

Take `CCCCCCCCCCCNC(=O)CCCCCC1(CCCCCCCC(=O)NC(CCCCCCCC)CCCCCCCC)OCC(CCN(C)C)O1` (stereo not drawn) [KEL9]: the pKa in data set [1] was determined as 7.03. For the same compound, the “Encapsulation efficiency (%)” value in [2] is 98.2%. Also, in the data set on Balb/c mice, the “delivery potency” value was “significantly reduced delivery potency; also recorded: lower delivery efficiency for both IV and IM administration”. Moreover, in data set [3], the PDI stood at 0.05 and the “Size (nm)” value was 125.0 nm.

As for `CCCCCCCCCCC(=O)OCCCCCCC1(CCCCCCCCOC(=O)C(CCCCCCCC)CCCCCCCC)OCC(CCN(C)C)O1` (stereo not drawn) [KEL13], the pKa in [1] was found to be 6.44. Moreover, the “Encapsulation efficiency (%)” value in data set [2] is on record as 91.0%. In the data set with Balb/c mice, the “whole‐body luciferase activity after IM administration” value is reported as “significantly higher luciferase activity than DLin‐MC3‐DMA LNP”; the “delivery potency” value is listed as “higher potency than LNPs with either double branched tails (KEL10) or double linear tails (KEL11)”. The “whole‐body luciferase activity after IV administration” value with Balb/c mice (1 mg/kg) was “lower potency than those with pKa of 6.7‐7.0”. In addition, in [3], the PDI worked out at 0.09 and the “Size (nm)” value turned out to be 99.68 nm.

As for `CCCCCCCCCCC(=O)OCCCCCCC1(CCCCCCCC(=O)OC(CCCCCCCC)CCCCCCCC)OCC(CCN(C)C)O1` (stereo not drawn) [KEL12], in data set [1], the pKa is reported as 6.93. Besides, the “Encapsulation efficiency (%)” value in [2] is 94.9%. Also, in the data set with Balb/c mice, the “whole‐body luciferase activity after IM administration” value is listed as “significantly higher luciferase activity than DLin‐MC3‐DMA LNP”; the “delivery potency” value is on record as “higher potency than LNPs with either double branched tails (KEL10) or double linear tails (KEL11)”; the “whole‐body luciferase activity after IV administration” value is recorded as “significantly higher luciferase activity than DLin‐MC3‐DMA LNP by IV”. In addition, in [3], the PDI was 0.04 and the “Size (nm)” value is reported as 89.54 nm.

On to `CCCCCCCCC(CCCCCCCC)OC(=O)CCCCCCCC1(CCCCCCCC(=O)OC(CCCCCCCC)CCCCCCCC)OCC(CCN(C)C)O1` (stereo not drawn) [KEL10], for which the pKa in data set [1] turned out to be 6.09. Moreover, the “Encapsulation efficiency (%)” value in [2] is on record as 96.5%. Besides, in the data set with Balb/c mice, the “delivery potency” value is on record as “potency diminished compared to KEL2”; the “whole‐body luciferase activity after IV administration” value is “lower potency than those with pKa of 6.7‐7.0”. In data set [3], the PDI is 0.10 and the “Size (nm)” value was 69.23 nm.

Turning to `CCCCC/C=C\C/C=C\CCCCCCCCC(CCCCCCCC/C=C\C/C=C\CCCCC)OC(=O)CCCN(C)C` [DLin‐MC3‐DMA, reference compound], the “decline of ionizable lipid level in plasma during the first 6 hrs” value in data set [6] was “reduced faster than (4S)‐KEL12”. The pKa in [1] is given as 6.33. For the same compound, the “Encapsulation efficiency (%)” value in [2] came out at 96.7%. In data set [3], the PDI amounted to 0.15 and the “Size (nm)” value worked out at 72.70 nm. Further, the cell viability result with 293T cells [7] was “over 80%”.

As for `CCCCCCCCCCCOC(=O)CCCCCC1(CCCCCCCC(=O)OC(CCCCCCCC)CCCCCCCC)OCC(CN(C)C)O1` (stereo not drawn) [KEL1], the pKa in [1] is reported as 5.72. Also, in data set [2], the “Encapsulation efficiency (%)” value is listed as 95.0%. In addition, in the data set on Balb/c mice, the “delivery potency” value was “lower delivery efficiency for both IV and IM administration”. Further, in data set [3], the PDI is 0.12 and the “Size (nm)” value was 76.72 nm.

Take `CCCCCCCCCCCOC(=O)CCCCCC1(CCCCCCCC(=O)OC(CCCCCCCC)CCCCCCCC)OCC(CCN(C)CCC)O1` (stereo not drawn) [KEL7]: the pKa in [1] stood at 5.91. Further, in data set [2], the “Encapsulation efficiency (%)” value was 97.2%. For the same compound, in the data set with Balb/c mice, the “delivery potency” value is “lower delivery efficiency for both IV and IM administration”. Moreover, in data set [3], the PDI was 0.10 and the “Size (nm)” value was 61.73 nm.

On to `CCCCCCCCCCCOC(=O)CCCCCC1(CCCCCCCC(=O)OC(CCCCCCCC)CCCCCCCC)OCC(CCCCN(C)C)O1` (stereo not drawn) [KEL4], for which the pKa in data set [1] stood at 7.40. Besides, in data set [2], the “Encapsulation efficiency (%)” value worked out at 91.0%. Besides, the “delivery potency” value with Balb/c mice is on record as “considerable potency”. Also, in data set [3], the PDI was found to be 0.16 and the “Size (nm)” value was determined as 118.1 nm.

As for `CCCCCCCCCCCOC(=O)CCCCCC1(CCCCCCCC(=O)OC(CCCCCCCC)CCCCCCCC)OCC(CCN(CC)C(C)C)O1` (stereo not drawn) [KEL8], in data set [1], the pKa was 6.17. Besides, the “Encapsulation efficiency (%)” value in [2] is reported as 97.6%. Besides, the “whole‐body luciferase activity after IV administration” value in the data set on Balb/c mice is given as “lower potency than those with pKa of 6.7‐7.0”. Besides, in [3], the PDI is recorded as 0.03 and the “Size (nm)” value was 71.68 nm.
